Experiments:
[1] = biological target: T1, Alpha-1A adrenergic receptor (Rattus norvegicus, UniProt P43140); test: DRUGMATRIX: Alpha-1A adrenergic receptor radioligand binding (ligand: prazosin); format: cell membranes, Wistar, Submaxillary gland, Membrane; details: Not Active = under 50% inhibition at 10 µM
T1 sequence (P43140 whole entry): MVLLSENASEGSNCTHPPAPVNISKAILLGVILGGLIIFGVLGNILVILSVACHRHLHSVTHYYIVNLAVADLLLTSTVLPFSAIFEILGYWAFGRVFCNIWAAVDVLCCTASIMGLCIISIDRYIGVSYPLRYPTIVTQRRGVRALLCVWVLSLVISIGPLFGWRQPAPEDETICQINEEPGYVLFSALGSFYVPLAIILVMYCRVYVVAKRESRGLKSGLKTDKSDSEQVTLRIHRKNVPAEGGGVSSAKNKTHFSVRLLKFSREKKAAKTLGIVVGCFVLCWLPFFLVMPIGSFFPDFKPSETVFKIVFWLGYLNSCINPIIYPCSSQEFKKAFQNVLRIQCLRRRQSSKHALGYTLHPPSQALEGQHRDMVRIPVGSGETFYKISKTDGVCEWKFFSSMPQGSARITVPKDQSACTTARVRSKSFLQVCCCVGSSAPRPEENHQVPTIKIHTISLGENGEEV

[2] = biological target: T2, Alpha-1D adrenergic receptor (Homo sapiens, UniProt P25100); format: cell membranes, HEK293, Membrane; further: in other assays of this panel Not Active means under 50% inhibition at 10 µM
T2 sequence (P25100 whole entry): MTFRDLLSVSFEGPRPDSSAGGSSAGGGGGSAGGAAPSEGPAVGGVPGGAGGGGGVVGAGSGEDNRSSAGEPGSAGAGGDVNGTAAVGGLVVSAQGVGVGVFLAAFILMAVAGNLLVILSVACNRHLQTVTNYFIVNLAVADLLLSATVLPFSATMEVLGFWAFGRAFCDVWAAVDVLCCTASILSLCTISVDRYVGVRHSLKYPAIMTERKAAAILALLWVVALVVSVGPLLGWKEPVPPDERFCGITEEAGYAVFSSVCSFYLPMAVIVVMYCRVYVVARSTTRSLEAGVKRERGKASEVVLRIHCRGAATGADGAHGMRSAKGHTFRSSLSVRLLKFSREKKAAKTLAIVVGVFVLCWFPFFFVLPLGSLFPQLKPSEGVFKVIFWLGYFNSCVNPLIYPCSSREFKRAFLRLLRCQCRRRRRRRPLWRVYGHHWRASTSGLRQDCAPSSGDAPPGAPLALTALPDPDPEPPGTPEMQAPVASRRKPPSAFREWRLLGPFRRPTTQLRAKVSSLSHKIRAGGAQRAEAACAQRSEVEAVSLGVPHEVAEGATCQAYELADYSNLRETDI

[3] = DRUGMATRIX: ATPase, Na+/K+ enzyme inhibition (substrate: ATP); format: tissue-based, Sus scrofa, Heart; details: Not Active = under 50% inhibition at 10 µM
[4] = DRUGMATRIX: beta-Lactamase enzyme inhibition (substrate: Nitrocefin); parameters: species or system Bacillus cereus; details: Not Active = under 50% inhibition at 10 µM
[5] = DRUGMATRIX: Calcium Channel Type L, Benzothiazepine radioligand binding (ligand: [3H] Diltiazem); format: cell membranes, Rattus norvegicus, Wistar, Brain, Membrane; details: Not Active = under 50% inhibition at 10 µM
Vasopressin V1a receptor = Vasopressin V1a receptor (Homo sapiens, UniProt P37288); format: cell membranes, Membrane; details: hek293; further: in other assays of this panel Not Active means under 50% inhibition at 10 µM
[6] = biological target: C-C chemokine receptor type 5 (Homo sapiens, UniProt P51681); format: cell membranes, Membrane; details: hek293; further: in other assays of this panel Not Active means under 50% inhibition at 10 µM
[7] = biological target: Sodium-dependent dopamine transporter (Homo sapiens, UniProt Q01959); test: DRUGMATRIX: Dopamine Transporter radioligand binding (ligand: [125I] RTI-55); format: cell membranes, CHO-K1, Membrane; details: Not Active = under 50% inhibition at 10 µM
Histamine H2 receptor = Histamine H2 receptor (Homo sapiens, UniProt P25021); format: cell membranes, CHO-K1, Membrane; further: in other assays of this panel Not Active means under 50% inhibition at 10 µM
[8] = biological target: cGMP-specific 3',5'-cyclic phosphodiesterase (Homo sapiens, UniProt O76074); test: DRUGMATRIX: Phosphodiesterase PDE5 enzyme inhibition (substrate: [3H]cGMP + cGMP); format: tissue-based, Platelet; details: platelet; Not Active = under 50% inhibition at 10 µM
Cathepsin G = biological target: T3, Cathepsin G (Homo sapiens, UniProt P08311); format: tissue-based; details: neutrophil
T3 sequence (P08311 whole entry): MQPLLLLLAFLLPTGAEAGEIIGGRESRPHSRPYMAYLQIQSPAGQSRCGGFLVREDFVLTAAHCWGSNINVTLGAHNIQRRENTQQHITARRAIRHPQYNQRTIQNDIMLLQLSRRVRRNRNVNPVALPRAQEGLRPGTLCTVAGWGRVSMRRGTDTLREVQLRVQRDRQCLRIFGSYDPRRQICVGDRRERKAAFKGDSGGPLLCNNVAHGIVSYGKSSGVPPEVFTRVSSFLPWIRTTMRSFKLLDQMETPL

[9] = biological target: Protein kinase C alpha type (Homo sapiens, UniProt P17252); format: cell-based; details: sf9
[10] = biological target: Tyrosine-protein kinase Fyn (Homo sapiens, UniProt P06241); test: biochemical; format: cell-based, Insect cells; details: insect cells
[11] = biological target: T4, 5-hydroxytryptamine receptor 1A (Rattus norvegicus, UniProt P19327); format: cell membranes, CHO-K1, Membrane; further: in other assays of this panel Not Active means under 50% inhibition at 10 µM
T4 sequence (P19327 whole entry): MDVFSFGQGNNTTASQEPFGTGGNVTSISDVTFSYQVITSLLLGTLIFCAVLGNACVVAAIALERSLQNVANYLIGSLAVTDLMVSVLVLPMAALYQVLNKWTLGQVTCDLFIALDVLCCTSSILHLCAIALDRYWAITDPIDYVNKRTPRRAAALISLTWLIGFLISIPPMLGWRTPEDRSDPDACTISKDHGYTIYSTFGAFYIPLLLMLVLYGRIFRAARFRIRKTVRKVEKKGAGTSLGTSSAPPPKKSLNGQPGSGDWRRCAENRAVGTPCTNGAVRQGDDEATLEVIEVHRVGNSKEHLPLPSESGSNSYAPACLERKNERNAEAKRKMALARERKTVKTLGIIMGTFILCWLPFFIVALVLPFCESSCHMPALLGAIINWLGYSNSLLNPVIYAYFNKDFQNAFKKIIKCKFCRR

Sequence of Sodium-dependent dopamine transporter (Q01959 whole entry): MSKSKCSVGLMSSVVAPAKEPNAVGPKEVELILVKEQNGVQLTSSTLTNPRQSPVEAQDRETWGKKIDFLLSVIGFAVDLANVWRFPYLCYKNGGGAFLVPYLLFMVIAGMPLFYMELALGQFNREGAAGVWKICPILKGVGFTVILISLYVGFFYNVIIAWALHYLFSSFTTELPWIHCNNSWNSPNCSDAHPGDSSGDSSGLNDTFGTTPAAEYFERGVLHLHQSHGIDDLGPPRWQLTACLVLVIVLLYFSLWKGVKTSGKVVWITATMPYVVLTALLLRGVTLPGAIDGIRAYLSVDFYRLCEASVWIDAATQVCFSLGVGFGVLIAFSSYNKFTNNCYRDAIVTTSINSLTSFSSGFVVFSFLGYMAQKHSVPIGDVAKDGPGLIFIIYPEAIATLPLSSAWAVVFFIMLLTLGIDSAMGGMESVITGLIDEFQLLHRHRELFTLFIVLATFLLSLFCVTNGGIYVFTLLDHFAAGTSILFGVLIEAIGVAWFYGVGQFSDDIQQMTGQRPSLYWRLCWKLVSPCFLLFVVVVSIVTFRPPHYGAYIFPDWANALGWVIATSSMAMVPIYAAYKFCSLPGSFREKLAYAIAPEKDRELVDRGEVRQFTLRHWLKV
Sequence of Vasopressin V1a receptor (P37288 whole entry): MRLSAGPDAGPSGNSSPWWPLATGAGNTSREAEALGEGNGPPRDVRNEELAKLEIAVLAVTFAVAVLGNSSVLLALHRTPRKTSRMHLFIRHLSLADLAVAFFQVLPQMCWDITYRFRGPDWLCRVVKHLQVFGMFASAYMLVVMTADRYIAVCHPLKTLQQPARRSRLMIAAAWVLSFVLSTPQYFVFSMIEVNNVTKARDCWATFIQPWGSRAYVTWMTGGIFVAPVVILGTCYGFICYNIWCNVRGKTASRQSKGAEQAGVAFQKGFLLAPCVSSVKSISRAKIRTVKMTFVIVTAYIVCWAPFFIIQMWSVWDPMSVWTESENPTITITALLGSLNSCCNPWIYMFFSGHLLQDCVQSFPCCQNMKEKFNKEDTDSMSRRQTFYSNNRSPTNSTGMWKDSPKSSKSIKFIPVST
Sequence of Tyrosine-protein kinase Fyn (P06241 whole entry): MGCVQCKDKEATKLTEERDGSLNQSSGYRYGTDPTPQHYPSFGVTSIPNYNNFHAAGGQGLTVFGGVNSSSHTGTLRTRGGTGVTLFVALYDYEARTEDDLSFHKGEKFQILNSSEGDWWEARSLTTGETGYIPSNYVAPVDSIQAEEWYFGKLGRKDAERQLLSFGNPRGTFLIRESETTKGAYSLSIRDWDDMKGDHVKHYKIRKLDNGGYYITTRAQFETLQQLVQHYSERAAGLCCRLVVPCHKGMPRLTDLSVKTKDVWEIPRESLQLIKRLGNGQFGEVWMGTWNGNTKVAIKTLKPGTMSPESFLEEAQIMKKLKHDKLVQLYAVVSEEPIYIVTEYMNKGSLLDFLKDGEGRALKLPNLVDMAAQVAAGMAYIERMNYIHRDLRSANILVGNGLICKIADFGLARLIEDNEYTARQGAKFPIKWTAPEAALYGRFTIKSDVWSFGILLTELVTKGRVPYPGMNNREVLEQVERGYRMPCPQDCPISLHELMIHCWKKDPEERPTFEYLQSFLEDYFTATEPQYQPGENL
Sequence of C-C chemokine receptor type 5 (P51681 whole entry): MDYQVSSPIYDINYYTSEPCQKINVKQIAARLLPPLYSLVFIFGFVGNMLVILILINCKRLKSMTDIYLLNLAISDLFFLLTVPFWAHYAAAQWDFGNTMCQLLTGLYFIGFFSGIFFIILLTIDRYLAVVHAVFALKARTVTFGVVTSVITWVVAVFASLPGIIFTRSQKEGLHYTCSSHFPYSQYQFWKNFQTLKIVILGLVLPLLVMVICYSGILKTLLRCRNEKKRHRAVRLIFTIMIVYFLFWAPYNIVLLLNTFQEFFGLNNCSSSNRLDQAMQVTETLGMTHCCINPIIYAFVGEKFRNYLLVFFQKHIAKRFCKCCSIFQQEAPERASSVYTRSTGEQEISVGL
Sequence of Histamine H2 receptor (P25021 whole entry): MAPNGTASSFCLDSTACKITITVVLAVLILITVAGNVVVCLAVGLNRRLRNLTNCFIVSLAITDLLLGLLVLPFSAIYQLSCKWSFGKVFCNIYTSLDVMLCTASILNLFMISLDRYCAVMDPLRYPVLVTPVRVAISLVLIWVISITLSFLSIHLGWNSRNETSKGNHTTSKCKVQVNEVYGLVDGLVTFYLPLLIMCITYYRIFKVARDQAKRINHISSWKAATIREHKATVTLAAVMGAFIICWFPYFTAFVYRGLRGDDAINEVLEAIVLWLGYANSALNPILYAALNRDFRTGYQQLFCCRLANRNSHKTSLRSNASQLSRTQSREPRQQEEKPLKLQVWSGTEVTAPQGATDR

For `CN1CCC[C@H]1c1cccnc1` [NICOTINE], the IC50 [1] was “Not Active”, the IC50 ([2]; hek293) was “Not Active” and the IC50 [3] was “Not Active”. For the same compound, the Ki [3] was “Not Active”, the IC50 [4] was “Not Active” and the Ki [4] was “Not Active”. For the same compound, the IC50 [5] was “Not Active”, the Ki [5] was “Not Active” and the IC50 (Vasopressin V1a receptor) was “Not Active”. The IC50 [6] was “Not Active”, the IC50 ([7]; cho-k1) was “Not Active” and the IC50 (Histamine H2 receptor; cho-k1) was “Not Active”. The IC50 [8] was “Not Active”, the IC50 (Cathepsin G) was “Not Active” and the IC50 [9] was “Not Active”. For the same compound, the IC50 [10] was “Not Active” and the IC50 ([11]; cho-k1) was “Not Active”.

In the case of `O=C1CN=C(c2ccccc2)c2cc([N+](=O)[O-])ccc2N1` [NITRAZEPAM], the IC50 [1] is reported as “Not Active”, the IC50 ([2]; hek293) is reported as “Not Active” and the IC50 [3] is reported as “Not Active”. For the same compound, the Ki [3] was “Not Active”, the IC50 [4] was “Not Active” and the Ki [4] was “Not Active”. The IC50 [5] was “Not Active”, the Ki [5] was “Not Active” and the IC50 (Vasopressin V1a receptor) was “Not Active”. For the same compound, the IC50 [6] was “Not Active”, the IC50 ([7]; cho-k1) was “Not Active” and the IC50 (Histamine H2 receptor; cho-k1) was “Not Active”. For the same compound, the IC50 [8] was “Not Active”, the IC50 (Cathepsin G) was “Not Active” and the IC50 [9] was “Not Active”. The IC50 [10] was “Not Active” and the IC50 ([11]; cho-k1) was “Not Active”.

In the case of `CNCCC=C1c2ccccc2CCc2ccccc21` [NORTRIPTYLINE], the IC50 ([1]; read-out: IC50) is reported as 305 nM, the Ki ([1]; read-out: Ki) is reported as 123 nM and the IC50 ([2]; read-out: IC50) is reported as 273 nM. The Ki ([2]; read-out: Ki) was 134 nM, the IC50 [3] was “Not Active” and the Ki [3] was “Not Active”. The IC50 [4] was “Not Active”, the Ki [4] was “Not Active” and the IC50 ([5]; read-out: IC50) was 2800 nM. The Ki ([5]; read-out: Ki) was 2490 nM, the IC50 (Vasopressin V1a receptor) was “Not Active” and the IC50 [6] was “Not Active”. It also gave an IC50 ([7]; read-out: IC50) of 1680 nM, a Ki ([7]; read-out: Ki) of 1330 nM and an IC50 (Histamine H2 receptor; read-out: IC50) of 2330 nM. For the same compound, the Ki (Histamine H2 receptor; read-out: Ki) was 2300 nM, the IC50 [8] was “Not Active” and the IC50 (Cathepsin G) was “Not Active”. The IC50 [9] was “Not Active”, the IC50 [10] was “Not Active” and the IC50 ([11]; read-out: IC50) was 1870 nM. It also gave a Ki ([11]; read-out: Ki) of 1070 nM.

For `CC1COc2c(N3CCN(C)CC3)c(F)cc3c(=O)c(C(=O)O)cn1c23` (configuration not stated) [OFLOXACIN], the IC50 [1] was “Not Active”, the IC50 ([2]; hek293) was “Not Active” and the IC50 [3] was “Not Active”. The Ki [3] was “Not Active”, the IC50 [4] was “Not Active” and the Ki [4] was “Not Active”. For the same compound, the IC50 [5] was “Not Active”, the Ki [5] was “Not Active” and the IC50 (Vasopressin V1a receptor) was “Not Active”. For the same compound, the IC50 [6] was “Not Active”, the IC50 ([7]; cho-k1) was “Not Active” and the IC50 (Histamine H2 receptor; cho-k1) was “Not Active”. The IC50 [8] was “Not Active”, the IC50 (Cathepsin G) was “Not Active” and the IC50 [9] was “Not Active”. For the same compound, the IC50 [10] was “Not Active” and the IC50 ([11]; cho-k1) was “Not Active”.

With `Oc1cccc2cccnc12` [OXYQUINOLINE] the IC50 [1] was “Not Active”, the IC50 ([2]; hek293) was “Not Active” and the IC50 [3] was “Not Active”. The Ki [3] was “Not Active”, the IC50 [4] was “Not Active” and the Ki [4] was “Not Active”. The IC50 [5] was “Not Active”, the Ki [5] was “Not Active” and the IC50 (Vasopressin V1a receptor) was “Not Active”. The IC50 [6] was “Not Active”, the IC50 ([7]; cho-k1) was “Not Active” and the IC50 (Histamine H2 receptor; cho-k1) was “Not Active”. The IC50 [8] was “Not Active”, the IC50 (Cathepsin G) was “Not Active” and the IC50 [9] was “Not Active”. For the same compound, the IC50 [10] was “Not Active” and the IC50 ([11]; cho-k1) was “Not Active”.

In the case of `CN(C)[C@@H]1C(O)=C(C(N)=O)C(=O)[C@@]2(O)C(O)=C3C(=O)c4c(O)cccc4[C@@](C)(O)[C@H]3[C@H](O)[C@@H]12` [OXYTETRACYCLINE], the IC50 [1] is reported as “Not Active”, the IC50 ([2]; hek293) is reported as “Not Active” and the IC50 [3] is reported as “Not Active”. The Ki [3] was “Not Active”, the IC50 [4] was “Not Active” and the Ki [4] was “Not Active”. The IC50 [5] was “Not Active”, the Ki [5] was “Not Active” and the IC50 (Vasopressin V1a receptor) was “Not Active”. For the same compound, the IC50 [6] was “Not Active”, the IC50 ([7]; cho-k1) was “Not Active” and the IC50 (Histamine H2 receptor; cho-k1) was “Not Active”. The IC50 [8] was “Not Active”, the IC50 (Cathepsin G) was “Not Active” and the IC50 [9] was “Not Active”. For the same compound, the IC50 [10] was “Not Active” and the IC50 ([11]; cho-k1) was “Not Active”.
